Read-outs that look alike come from different tables or passages of the source.
Key:
[1] = final pH 4.5, 2 hours, 20° C.
Experimental: (§1) The following synthetic mixtures were prepared, with a final pH of 4.5:
(§2) After 2 hours' incubation in a shaker incubator (20° C.) samples were taken and the dissolved concentration of each of these components was determined.

[2] = Effect of PGA and AMPI on the solubility of 6-APA (dissolved concentrations in synthetic mixtures); settings: final pH 4.5, 2 hours, 20° C.
Experimental: as §1, §2

[3] = Effect of PGA and CEX on the solubility of 7-ADCA (dissolved concentrations in synthetic mixtures); settings: final pH 4.5, 2 hours, 20° C.
Experimental: Effect of PGA and PEX on the Solubility of 7-ADCA
The following synthetic mixtures were prepared, with a final pH of 4.5;
3% (m/m) 7-ADCA and 3.0% (m/m) CEX.H2O in water.
as §2

[4] = Example II Mixture 2: 3% (m/m) 6-APA and 0.4% (m/m) PG in water
[5] = Example II Mixture 3: 3% (m/m) 6-APA, 0.4% (m/m) PG and 1.5% (m/m) PGA in water
[6] = Example II Mixture 4: 3% (m/m) 6-APA, 0.4% (m/m) PG, 1.5% (m/m) PGA and 3.0% (m/m) AMPI in water
[7] = Example I Mixture 3: 3% (m/m) 7-ADCA, 0.4% (m/m) PG and 1.5% (m/m) PGA in water
[8] = Example I Mixture 4: 3% (m/m) 7-ADCA, 0.4% (m/m) PC, 1.5% (m/m) PGA and 3.0% (m/m) CEX.H2O in water

Row | Compound | Dissolved Concentrations ([1]; Example III Mixture 1: 3% (m/m) 6-APA in water) | Dissolved Concentrations ([1]; Example III Mixture 2: 3% (m/m) 6-APA and 0.5% (m/m) HPG in water) | Dissolved Concentrations ([1]; Example III Mixture 3: 3% (m/m) 6-APA, 0.5% (m/m) HPG and 1.5% (m/m) HPGA in water) | Dissolved Concentrations ([1]; Example III Mixture 4: 3% (m/m) 6-APA, 0.5% (m/m) HPG and 2.0% HPG-Me in water) | Dissolved Concentrations ([1]; Example III Mixture 5: 3% (m/m) 6-APA, 0.5% (m/m) HPG, 1.5% (m/m) HPGA and 3.0% AMOX in water) | Dissolved Concentrations ([1]; Example III Mixture 6: 3.0% (m/m) 6-APA, 0.5% (m/m) HPG, 2.0% (m/m) HPG-Me and 3.0% (m/m) AMOX in water) | dissolved concentration ([2]; Example II Mixture 1: 3% (m/m) 6-APA in water) | dissolved concentration [2, 4] | dissolved concentration [2, 5] | dissolved concentration [2, 6] | Dissolved Concentrations ([3]; Example I Mixture 2: 3% (m/m) 7-ADCA and 0.4% (m/m) PG in water) | Dissolved Concentrations [3, 7] | Dissolved Concentrations [3, 8]
1 | CC1(C)S[C@@H]2[C@H](N)C(=O)N2[C@H]1C(=O)O [6-APA, 6-aminopenicillanic acid] | 0.35 % (m/m) | 0.35 % (m/m) | 0.40 % (m/m) | 0.50 % (m/m) | 1.40 % (m/m) | 2.15 % (m/m) | 0.35 | 0.40 | 0.40 | 0.90 |  |  | 
2 | N[C@@H](C(=O)O)c1ccccc1 [PG, D-phenyl glycine] |  |  |  |  |  |  |  | 0.4 | 0.4 | 0.4 | 0.40 % (m/m) | 0.40 % (m/m) | 0.40 % (m/m)
3 | NC(=O)[C@H](N)c1ccccc1 [PGA, D-phenyl glycine amide] |  |  |  |  |  |  |  |  | 1.5 | 1.5 |  | 1.5 % (m/m) | 1.5 % (m/m)
